From ChEMBL document CHEMBL5291721, “A preclinical secondary pharmacology resource illuminates target-adverse drug reaction associations of marketed drugs” (Nat Commun, 2023) come the findings set out here.

Molecules are shown by their SMILES.

Test [1] concerns the target 3',5'-cyclic-AMP phosphodiesterase 4A (Homo sapiens, UniProt P27815). In kind it is functional.
In test [2] the target is Sodium-dependent noradrenaline transporter (Homo sapiens, UniProt P23975).
Test [3] concerns the target T1, Estrogen receptor (Homo sapiens, UniProt P03372).
T1 sequence (P03372 whole entry): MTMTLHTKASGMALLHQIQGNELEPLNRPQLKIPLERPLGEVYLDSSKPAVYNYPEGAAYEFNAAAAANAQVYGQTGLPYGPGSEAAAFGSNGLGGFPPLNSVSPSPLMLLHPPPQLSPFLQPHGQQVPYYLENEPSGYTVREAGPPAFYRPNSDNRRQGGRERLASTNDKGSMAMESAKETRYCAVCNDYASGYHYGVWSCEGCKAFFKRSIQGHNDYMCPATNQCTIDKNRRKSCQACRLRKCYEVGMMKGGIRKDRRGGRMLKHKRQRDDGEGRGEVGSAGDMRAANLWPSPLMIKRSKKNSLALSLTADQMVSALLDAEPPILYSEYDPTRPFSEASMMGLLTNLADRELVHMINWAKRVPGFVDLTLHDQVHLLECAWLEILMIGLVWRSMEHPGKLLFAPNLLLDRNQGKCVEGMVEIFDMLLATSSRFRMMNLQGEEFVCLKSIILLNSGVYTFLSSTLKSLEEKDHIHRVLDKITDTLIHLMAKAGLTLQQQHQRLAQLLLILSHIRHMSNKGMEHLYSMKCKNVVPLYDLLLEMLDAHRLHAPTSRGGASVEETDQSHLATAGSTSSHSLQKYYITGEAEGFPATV

In test [4] the target is 5-hydroxytryptamine receptor 2B (Homo sapiens, UniProt P41595). It counts as functional, cell-based.
Chain of 5-hydroxytryptamine receptor 2B (P41595 whole entry): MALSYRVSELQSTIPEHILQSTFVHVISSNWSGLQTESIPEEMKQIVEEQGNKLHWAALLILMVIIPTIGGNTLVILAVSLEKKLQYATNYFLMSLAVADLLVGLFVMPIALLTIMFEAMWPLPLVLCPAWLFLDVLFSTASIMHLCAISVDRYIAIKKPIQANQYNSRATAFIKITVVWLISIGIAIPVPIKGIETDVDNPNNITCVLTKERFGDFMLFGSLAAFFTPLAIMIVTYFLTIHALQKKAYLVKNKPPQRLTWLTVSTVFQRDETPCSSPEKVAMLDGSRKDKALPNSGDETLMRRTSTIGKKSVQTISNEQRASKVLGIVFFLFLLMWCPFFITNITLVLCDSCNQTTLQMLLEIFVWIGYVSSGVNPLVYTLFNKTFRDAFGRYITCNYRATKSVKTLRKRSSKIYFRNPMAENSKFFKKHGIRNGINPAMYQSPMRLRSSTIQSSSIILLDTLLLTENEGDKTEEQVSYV
Test [5] concerns the target T2, Progesterone receptor (Homo sapiens, UniProt P06401).
T2 sequence (P06401 whole entry): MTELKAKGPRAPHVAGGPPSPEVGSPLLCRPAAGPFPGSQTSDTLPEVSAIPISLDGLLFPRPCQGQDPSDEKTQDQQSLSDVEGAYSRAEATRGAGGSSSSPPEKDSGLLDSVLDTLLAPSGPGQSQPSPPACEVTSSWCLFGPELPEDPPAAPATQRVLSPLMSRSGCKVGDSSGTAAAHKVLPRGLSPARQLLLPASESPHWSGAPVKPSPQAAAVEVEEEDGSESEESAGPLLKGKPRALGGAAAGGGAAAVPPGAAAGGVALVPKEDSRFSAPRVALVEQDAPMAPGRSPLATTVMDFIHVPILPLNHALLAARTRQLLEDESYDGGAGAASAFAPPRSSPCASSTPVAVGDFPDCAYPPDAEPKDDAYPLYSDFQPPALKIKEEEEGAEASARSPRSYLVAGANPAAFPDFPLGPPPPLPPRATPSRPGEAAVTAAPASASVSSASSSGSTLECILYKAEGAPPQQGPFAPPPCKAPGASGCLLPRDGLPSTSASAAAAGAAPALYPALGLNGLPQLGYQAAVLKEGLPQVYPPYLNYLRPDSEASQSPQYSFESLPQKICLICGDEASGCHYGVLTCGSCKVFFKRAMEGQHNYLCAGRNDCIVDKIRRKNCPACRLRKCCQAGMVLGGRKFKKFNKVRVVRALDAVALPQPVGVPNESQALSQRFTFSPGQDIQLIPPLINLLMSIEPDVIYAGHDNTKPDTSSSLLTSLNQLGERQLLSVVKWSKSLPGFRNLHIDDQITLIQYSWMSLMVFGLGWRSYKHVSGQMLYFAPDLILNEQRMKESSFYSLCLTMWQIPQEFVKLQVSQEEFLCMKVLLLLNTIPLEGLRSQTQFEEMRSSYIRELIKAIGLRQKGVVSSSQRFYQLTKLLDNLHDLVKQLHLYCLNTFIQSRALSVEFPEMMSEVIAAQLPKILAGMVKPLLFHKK

Test [6] deals with Vascular endothelial growth factor receptor 2 (Homo sapiens, UniProt P35968). It counts as functional.
Chain of Vascular endothelial growth factor receptor 2 (P35968 whole entry): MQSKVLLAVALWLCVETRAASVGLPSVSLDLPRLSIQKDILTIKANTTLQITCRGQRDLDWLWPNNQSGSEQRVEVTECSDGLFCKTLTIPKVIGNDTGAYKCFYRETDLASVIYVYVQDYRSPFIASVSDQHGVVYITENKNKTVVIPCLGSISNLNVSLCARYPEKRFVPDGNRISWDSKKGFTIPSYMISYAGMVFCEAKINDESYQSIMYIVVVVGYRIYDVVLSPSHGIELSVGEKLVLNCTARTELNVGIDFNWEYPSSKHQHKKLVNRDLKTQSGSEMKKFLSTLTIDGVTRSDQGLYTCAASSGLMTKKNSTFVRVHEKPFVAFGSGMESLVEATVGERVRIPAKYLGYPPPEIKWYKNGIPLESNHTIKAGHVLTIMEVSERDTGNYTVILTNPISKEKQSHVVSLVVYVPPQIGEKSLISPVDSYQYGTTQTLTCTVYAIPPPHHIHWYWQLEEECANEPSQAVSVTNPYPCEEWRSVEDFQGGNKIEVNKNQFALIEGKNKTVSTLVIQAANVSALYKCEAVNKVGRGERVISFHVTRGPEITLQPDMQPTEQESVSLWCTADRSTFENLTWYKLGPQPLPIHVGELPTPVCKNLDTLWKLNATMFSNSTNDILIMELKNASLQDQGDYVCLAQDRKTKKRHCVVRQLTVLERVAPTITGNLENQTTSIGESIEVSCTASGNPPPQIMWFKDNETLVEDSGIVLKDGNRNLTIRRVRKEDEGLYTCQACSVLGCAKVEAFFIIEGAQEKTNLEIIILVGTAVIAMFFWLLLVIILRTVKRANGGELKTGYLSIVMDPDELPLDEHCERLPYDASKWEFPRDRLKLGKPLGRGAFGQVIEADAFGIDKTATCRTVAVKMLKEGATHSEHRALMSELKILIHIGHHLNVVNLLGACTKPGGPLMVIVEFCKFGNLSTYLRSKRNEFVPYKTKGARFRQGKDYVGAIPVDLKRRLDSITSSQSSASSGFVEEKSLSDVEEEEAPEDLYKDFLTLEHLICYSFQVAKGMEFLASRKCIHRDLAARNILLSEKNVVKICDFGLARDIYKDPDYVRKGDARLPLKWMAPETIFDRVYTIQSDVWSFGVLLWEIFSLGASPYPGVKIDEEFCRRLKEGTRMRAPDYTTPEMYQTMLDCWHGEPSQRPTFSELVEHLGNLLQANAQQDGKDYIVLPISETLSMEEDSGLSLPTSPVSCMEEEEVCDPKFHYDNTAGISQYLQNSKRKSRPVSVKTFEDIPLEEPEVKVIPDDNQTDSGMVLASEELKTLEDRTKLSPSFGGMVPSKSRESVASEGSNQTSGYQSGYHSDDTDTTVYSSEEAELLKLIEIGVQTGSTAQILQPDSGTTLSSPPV
Test [7] deals with Prothrombin (Homo sapiens, UniProt P00734). In kind it is functional.
Test [8] deals with Prostaglandin G/H synthase 1 (Homo sapiens, UniProt P23219). In kind it is functional.
Chain of Prostaglandin G/H synthase 1 (P23219 whole entry): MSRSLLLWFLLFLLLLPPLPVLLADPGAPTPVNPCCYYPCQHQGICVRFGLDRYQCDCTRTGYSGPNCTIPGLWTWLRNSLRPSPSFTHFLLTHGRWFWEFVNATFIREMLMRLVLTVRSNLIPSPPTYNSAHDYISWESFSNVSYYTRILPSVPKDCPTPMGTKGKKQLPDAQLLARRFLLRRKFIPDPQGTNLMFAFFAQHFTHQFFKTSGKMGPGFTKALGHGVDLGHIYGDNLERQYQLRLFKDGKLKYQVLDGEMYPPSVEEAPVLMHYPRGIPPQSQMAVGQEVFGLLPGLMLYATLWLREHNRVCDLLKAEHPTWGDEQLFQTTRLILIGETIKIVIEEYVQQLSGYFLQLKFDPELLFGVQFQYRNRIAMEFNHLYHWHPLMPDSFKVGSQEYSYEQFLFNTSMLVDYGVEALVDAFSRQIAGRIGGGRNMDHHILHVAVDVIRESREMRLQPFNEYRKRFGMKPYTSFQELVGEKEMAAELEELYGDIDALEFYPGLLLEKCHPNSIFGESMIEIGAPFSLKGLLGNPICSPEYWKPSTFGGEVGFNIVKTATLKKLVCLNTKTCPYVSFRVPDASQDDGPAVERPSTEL
Test [9] addresses Cannabinoid receptor 1 (Homo sapiens, UniProt P21554). In kind it is functional, cell-based.
Test [10] concerns the target 5-hydroxytryptamine receptor 2A (Homo sapiens, UniProt P28223). It counts as functional, cell-based.
Test [11] addresses T3, Alpha-2B adrenergic receptor (Homo sapiens, UniProt P18089).
T3 sequence (P18089 whole entry): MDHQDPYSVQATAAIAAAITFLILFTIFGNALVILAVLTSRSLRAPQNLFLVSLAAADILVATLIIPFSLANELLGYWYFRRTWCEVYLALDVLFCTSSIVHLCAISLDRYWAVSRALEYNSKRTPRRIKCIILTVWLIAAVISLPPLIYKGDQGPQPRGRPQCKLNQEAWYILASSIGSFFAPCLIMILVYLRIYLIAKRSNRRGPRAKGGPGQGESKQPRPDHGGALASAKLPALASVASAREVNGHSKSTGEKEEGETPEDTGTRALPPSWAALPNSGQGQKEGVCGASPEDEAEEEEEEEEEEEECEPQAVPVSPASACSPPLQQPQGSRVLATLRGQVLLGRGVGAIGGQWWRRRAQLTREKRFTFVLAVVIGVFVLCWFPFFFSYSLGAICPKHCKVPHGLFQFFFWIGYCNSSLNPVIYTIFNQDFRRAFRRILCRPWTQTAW

For test [12], the target named is Glutamate receptor ionotropic, NMDA 1 (Rattus norvegicus, UniProt P35439).
The target of test [13] is T2, Progesterone receptor. It counts as functional.
Test [14] has as its target Vasopressin V2 receptor (Homo sapiens, UniProt P30518).
Also: assay procedure not described here.

Chain of Cannabinoid receptor 1 (P21554 whole entry): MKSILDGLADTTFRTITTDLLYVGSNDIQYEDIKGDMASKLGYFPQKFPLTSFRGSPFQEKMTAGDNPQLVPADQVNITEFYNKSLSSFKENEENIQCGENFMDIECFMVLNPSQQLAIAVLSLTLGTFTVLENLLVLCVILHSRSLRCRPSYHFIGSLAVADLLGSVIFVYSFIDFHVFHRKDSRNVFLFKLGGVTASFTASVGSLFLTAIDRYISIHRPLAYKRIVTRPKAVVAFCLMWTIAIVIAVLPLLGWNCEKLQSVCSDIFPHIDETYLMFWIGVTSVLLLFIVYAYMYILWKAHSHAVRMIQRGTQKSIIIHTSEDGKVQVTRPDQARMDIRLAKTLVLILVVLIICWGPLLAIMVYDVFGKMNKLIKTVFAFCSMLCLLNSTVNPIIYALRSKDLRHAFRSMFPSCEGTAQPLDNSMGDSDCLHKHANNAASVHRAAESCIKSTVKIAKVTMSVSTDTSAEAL
Chain of 5-hydroxytryptamine receptor 2A (P28223 whole entry): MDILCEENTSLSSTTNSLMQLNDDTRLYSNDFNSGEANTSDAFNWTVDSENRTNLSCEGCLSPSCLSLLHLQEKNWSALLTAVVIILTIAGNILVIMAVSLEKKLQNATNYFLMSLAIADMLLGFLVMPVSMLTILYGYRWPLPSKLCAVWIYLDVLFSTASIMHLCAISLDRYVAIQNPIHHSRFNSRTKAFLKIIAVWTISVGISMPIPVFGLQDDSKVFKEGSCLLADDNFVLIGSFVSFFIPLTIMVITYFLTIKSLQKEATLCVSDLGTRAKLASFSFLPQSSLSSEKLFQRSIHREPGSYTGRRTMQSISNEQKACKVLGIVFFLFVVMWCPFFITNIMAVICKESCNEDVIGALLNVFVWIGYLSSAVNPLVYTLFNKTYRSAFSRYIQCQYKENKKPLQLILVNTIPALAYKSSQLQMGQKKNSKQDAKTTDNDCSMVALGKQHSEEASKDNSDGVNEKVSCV
Chain of 3',5'-cyclic-AMP phosphodiesterase 4A (P27815 whole entry): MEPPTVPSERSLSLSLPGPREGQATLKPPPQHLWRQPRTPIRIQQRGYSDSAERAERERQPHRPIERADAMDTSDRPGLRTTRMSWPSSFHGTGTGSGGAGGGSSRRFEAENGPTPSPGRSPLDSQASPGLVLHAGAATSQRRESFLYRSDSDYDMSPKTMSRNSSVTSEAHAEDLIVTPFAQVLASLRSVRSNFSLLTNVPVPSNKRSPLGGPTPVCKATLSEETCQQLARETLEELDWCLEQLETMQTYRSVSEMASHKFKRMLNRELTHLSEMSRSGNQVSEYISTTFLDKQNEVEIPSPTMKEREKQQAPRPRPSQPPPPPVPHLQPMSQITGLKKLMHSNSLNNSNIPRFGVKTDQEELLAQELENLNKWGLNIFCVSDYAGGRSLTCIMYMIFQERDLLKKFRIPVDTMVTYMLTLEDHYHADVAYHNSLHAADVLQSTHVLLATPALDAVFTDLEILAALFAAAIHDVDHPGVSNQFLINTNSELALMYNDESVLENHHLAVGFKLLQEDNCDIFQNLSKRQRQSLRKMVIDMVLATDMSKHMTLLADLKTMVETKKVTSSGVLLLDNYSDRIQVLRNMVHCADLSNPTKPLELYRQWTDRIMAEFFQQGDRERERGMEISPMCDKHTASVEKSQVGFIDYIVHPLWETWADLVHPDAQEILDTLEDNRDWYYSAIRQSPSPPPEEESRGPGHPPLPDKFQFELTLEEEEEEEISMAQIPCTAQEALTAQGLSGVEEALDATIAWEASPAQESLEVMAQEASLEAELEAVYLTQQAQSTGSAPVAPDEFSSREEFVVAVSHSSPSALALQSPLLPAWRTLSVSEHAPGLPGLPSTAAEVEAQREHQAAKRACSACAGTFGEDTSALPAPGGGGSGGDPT
Chain of Sodium-dependent noradrenaline transporter (P23975 whole entry): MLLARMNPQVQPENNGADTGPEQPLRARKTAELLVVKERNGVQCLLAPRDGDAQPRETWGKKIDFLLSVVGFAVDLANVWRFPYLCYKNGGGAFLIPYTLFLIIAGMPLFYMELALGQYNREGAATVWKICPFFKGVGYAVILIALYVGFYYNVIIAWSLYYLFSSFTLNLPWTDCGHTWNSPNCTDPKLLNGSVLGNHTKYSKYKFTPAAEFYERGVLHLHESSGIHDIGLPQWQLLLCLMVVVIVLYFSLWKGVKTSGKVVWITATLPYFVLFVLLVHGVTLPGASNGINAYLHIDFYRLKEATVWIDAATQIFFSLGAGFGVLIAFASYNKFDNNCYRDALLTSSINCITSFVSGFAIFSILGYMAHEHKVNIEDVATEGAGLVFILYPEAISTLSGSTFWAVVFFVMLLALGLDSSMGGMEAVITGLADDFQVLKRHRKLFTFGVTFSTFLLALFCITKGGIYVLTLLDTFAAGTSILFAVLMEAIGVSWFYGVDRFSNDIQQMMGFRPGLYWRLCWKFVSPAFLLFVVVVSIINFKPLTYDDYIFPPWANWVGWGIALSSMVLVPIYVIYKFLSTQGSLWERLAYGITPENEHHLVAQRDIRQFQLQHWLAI

For orientation: AC50 means the concentration giving half of the maximal activity seen. For the compound `OC[C@H]1NC[C@H](O)[C@@H](O)[C@H]1O`, the AC50 in test [1], in test [2], in test [3], in test [4], in test [5] and in [6] was above 30 µM throughout. Also, the half-maximal activity concentration (AC50) in test [7] and in test [8] was above 30 µM in each case.

As to `CC#CC(=O)N1CCC[C@H]1c1nc(-c2ccc(C(=O)Nc3ccccn3)cc2)c2c(N)nccn12` [ACALABRUTINIB], the AC50 in [1] is above 30 µM; in [2] it was above 30 µM; in [3] it was above 30 µM; in test [4], above 30 µM; in [5], above 30 µM; in test [6], 2.01 µM. The AC50 in [7] and in test [8] was above 30 µM in each case.

As for `C=CCOc1ccc(CC(=O)O)cc1Cl` [ALCLOFENAC], the half-maximal activity concentration (AC50) in test [1], in [2], in test [3], in [4], in test [5] and in test [6] was above 30 µM each time. The concentration at half-maximal activity (AC50) in test [7] was above 30 µM; in test [8] it was above 3 µM.

With `O=C(Cc1cccs1)N[C@@H]1C(=O)N2C(C(=O)[O-])=C(C[n+]3ccccc3)CS[C@H]12` [CEPHALORIDINE], the AC50 in test [1] is above 3 µM; in test [9], above 30 µM; in test [10], above 30 µM; in test [2], above 30 µM; in test [3], above 30 µM; in test [4], above 30 µM. Also, the half-maximal activity concentration (AC50) in test [5], in test [11], in [7], in test [8] and in test [12] was above 30 µM throughout.

As for `CCCCCCCCCCCCCCCC(=O)OC[C@H](COP(=O)([O-])OCC[N+](C)(C)C)OC(=O)CCCCCCCCCCCCCCC` [COLFOSCERIL PALMITATE], the AC50 in test [1], in test [2], in test [3], in test [4], in test [5] and in test [7] was above 30 µM each time. Besides, the AC50 in test [8] is above 30 µM.

On to `C[C@@H](CN1CC(=O)NC(=O)C1)N1CC(=O)NC(=O)C1` [DEXRAZOXANE], for which the AC50 in [1], in test [2], in [3], in test [4], in test [5] and in [7] was above 30 µM in each case. The AC50 in test [8] amounted to 5.98 µM.

For `C[C@H](Nc1ncnc2[nH]cnc12)c1cc2cccc(Cl)c2c(=O)n1-c1ccccc1` [DUVELISIB], the AC50 in [1], in test [9], in test [10], in [2], in [13] and in test [3] was above 30 µM in each case. Moreover, the concentration at half-maximal activity (AC50) in test [4], in test [5], in test [11], in test [7] and in test [8] was above 30 µM throughout.

As to `O=C(O)[C@H](O)[C@@H](O)[C@H](O)[C@H](O)CO` [GLUCONIC ACID], the AC50 in [1] is 21.4 µM; in test [2] it was above 30 µM; in [4], above 30 µM; in test [5], above 30 µM; in test [6], above 30 µM; in test [7], above 30 µM. The half-maximal activity concentration (AC50) in [8] is above 30 µM.

On to `CO[C@@]1(NC(=O)C(C(=O)O)c2ccc(O)cc2)C(=O)N2C(C(=O)O)=C(CSc3nnnn3C)CO[C@@H]21` (stereo partly drawn) [MOXALACTAM], for which the concentration at half-maximal activity (AC50) in test [1], in test [2], in test [3], in test [4], in [5] and in test [7] was above 30 µM in each case. In addition, in [8], the half-maximal activity concentration (AC50) is above 30 µM.

Consider `CS(=O)(=O)Nc1ccc([N+](=O)[O-])cc1Oc1ccccc1` [NIMESULIDE], for which the concentration at half-maximal activity (AC50) is above 10 µM in [1]; above 30 µM in [9]; above 30 µM in test [2]; 26 µM in test [14]; above 30 µM in test [13]; above 30 µM in test [4]. Further, the concentration at half-maximal activity (AC50) in test [5], in test [6], in [7] and in test [12] was above 30 µM each time.

Consider `CCCCCCCC/C=C\CCCCCCCC(=O)O` [OLEIC ACID], for which the AC50 in [1] was above 30 µM; in [2], 27.2 µM; in test [3], above 30 µM; in [4], above 30 µM; in test [6], above 30 µM; in test [7], above 30 µM. In test [8], this compound yielded an AC50 of 3.54 µM.

With `C#CCN(C)Cc1ccccc1` [PARGYLINE], the concentration at half-maximal activity (AC50) in test [1], in test [9], in [10], in test [2], in test [3] and in test [4] was above 30 µM in each case. The concentration at half-maximal activity (AC50) in [5], in [11], in test [7], in test [8] and in [12] was above 30 µM throughout.

Take `CC1=C(C/C=C(\C)CCC[C@H](C)CCC[C@H](C)CCCC(C)C)C(=O)c2ccccc2C1=O` [PHYTONADIONE]: the AC50 in test [1] was 9.52 µM; in test [2] it was above 30 µM; in [4], above 30 µM; in [5], above 30 µM; in test [6] it was above 30 µM; in test [7] it was above 30 µM. In test [8], this compound registered a concentration at half-maximal activity (AC50) of 13.4 µM.

With `COc1cccc2c1C(=O)c1c(O)c3c(c(O)c1C2=O)C[C@@](O)(C(=O)CO)C[C@@H]3O[C@H]1C[C@H](N)[C@H](O[C@@H]2CCCCO2)[C@H](C)O1` [PIRARUBICIN], the AC50 in [1], in [2], in test [3], in test [4], in test [5] and in [7] was above 30 µM in each case. This compound also came in with an AC50 in test [8] of 1.57 µM.

As to `Cc1cccc(C)c1NC(=O)c1cc(S(N)(=O)=O)c(Cl)cc1O` [XIPAMIDE], the half-maximal activity concentration (AC50) in [1], in [2], in test [4], in test [5], in test [6] and in test [7] was above 30 µM each time. This compound displayed a concentration at half-maximal activity (AC50) in test [8] above 30 µM.
